Measurements as given in patent US7262267B1, “Polypeptide mediating cell permeability” (Island Pharmacueticals, Ltd., priority 1998, dated 2007).
Where no end group is shown, it is not given here.

Columns and labels:
[1] = system: c-Raf1 kinase; assay: Inhibition of the TNFα-dependent activation of c-Raf1 kinase (immunocomplex test with MEK and γ-32P-ATP); format: cell-based; conditions: HeLa cells incubated 2 h with 2 μM polypeptide, stimulated 15 min with TNFα; FIG. 2
Excerpt: The detection of cell permeability mediated by CPP is shown by inhibition of the TNFα-dependent activation of c-Raf1 kinase. The activation of the c-Raf1 kinase is based on the interaction between the TNF receptor I (TNR-RI) and the adapter molecule Grb2. For this purpose, the SH3 domain of Grb2 interacts with a PLAP motive from the cytoplasmic domain of TNF-RI.
CPP is provided in the form of a fusion polypeptide. In this fusion polypeptide referred to as CPP-PLAP CPP, the amino acid sequence of FIG. 1 is present as N-terminus partner and a PLAP motive from the cytoplasmic domain of TNF-RI is present as C-terminus partner. A fusion polypeptide referred to as CPP-KLAP is also provided, which has a mutated PLAP motive.
HeLa cells are incubated for 2 h with 2 μM CPP-PLAP or CPP-KLAP (control) and stimulated for 15 min with 100 μ/ml TNFα. The activation of c-Raf1 kinase is determined by an immunocomplex test using MEK (Santa Cruz, Biotech) and y^32p-ATP as substrate (cf. FIG. 2).

[2] = system: 293 cells; assay: Cell permeability: detection of the protein in the cytosolic fraction of 293 cells by Western blot; format: cell-based; conditions: 1 μM in medium, Western blot anti-hexa-His and anti-eGFP
Procedure: Detection of the cell permeability mediated by DHBV (duck hepatitis B virus)-CPP was made as follows: According to standard methods a fusion protein consisting of a hexa-His-Tag (6H), DHBV-CPP and eGFP (enhanced green fluorescent protein) was prepared in analogy to Example 1 in an E. coli expression system. The pQE vector system of the Quiagen company was used. This protein (DHBV42-53eGFP) was isolated. wt6HeGFP (fusion protein of 6 His and eGFP) was used for control experiments. Then, 293 cells were incubated in the presence of these proteins for 10 and 20 minutes. The proteins were added to the medium at a concentration of 1 μM. After 10 or 20 minutes, the cells were lyzed and the cytosolic fraction of the cells was isolated by ultracentrifugation.
The presence of DHBV42-53 eGFP in the cytosol fraction was detected by means of Western blot analysis using a hexa-His-tag-specific antibody (FIG. 6, lanes 1-4) (anti-hexa-His6 of Qiagen company) or an eGFP-specific antibody (anti-eGFP of Clontech company) (FIG. 6, lanes 5-8). A peroxidase-conjugated secondary antibody (anti-mouse HRP, anti-rabbit-HRP of Amersham company) was used for the detection.

Row | Substance | inhibition of the TNFα-dependent activation of c-Raf1 kinase [1] | internalization of the protein into the cell (cytosol) ([2]; after 10 min) | internalization of the protein into the cell (cytosol) ([2]; after 20 minutes)
1 | CPP-PLAP: fusion polypeptide: amino acid sequence of FIG. 1 as N-terminus partner, PLAP motive from cytoplasmic domain of TNF-RI as C-terminus partner (PLSSIFSRIGDPTTTKPLAPNPSF) | fully inhibits |  | 
2 | DHBV42-53-eGFP: fusion protein consisting of a hexa-His-Tag (6H), DHBV-CPP and eGFP (enhanced green fluorescent protein) (TIDHVLDHVQTM; not fully specified (C-terminus); also: fusion with hexa-His tag and eGFP, not in the chain) |  | can be observed | can be observed
